Source: patent US9133128B2, “Pyrazole derivatives as cannabinoid receptor 1 antagonists” (Research Triangle Institute, priority 2011, dated 2015)
Like-named read-outs stand apart in the source and are kept apart here. Each block holds one compound with its values, some of them ahead of it.

Columns and labels:
CB1 [1] = molecular target: T1, CB1 (Homo sapiens, UniProt P21554); test: Displacement of [3H]CP55940 in membranes of CHO-K1 cells over-expressing CB1; format: binding; details: for Binding Selectivity using CP55940 Displacement: CB2 Ki over CB1 Ki; for Ki: read-out: Ki (nM) v. [3H] CP55940 at CB1
T1 construct: expressed in transfected cells; host or cells: CHO-K1 (membranes)
T1 sequence (P21554 whole entry): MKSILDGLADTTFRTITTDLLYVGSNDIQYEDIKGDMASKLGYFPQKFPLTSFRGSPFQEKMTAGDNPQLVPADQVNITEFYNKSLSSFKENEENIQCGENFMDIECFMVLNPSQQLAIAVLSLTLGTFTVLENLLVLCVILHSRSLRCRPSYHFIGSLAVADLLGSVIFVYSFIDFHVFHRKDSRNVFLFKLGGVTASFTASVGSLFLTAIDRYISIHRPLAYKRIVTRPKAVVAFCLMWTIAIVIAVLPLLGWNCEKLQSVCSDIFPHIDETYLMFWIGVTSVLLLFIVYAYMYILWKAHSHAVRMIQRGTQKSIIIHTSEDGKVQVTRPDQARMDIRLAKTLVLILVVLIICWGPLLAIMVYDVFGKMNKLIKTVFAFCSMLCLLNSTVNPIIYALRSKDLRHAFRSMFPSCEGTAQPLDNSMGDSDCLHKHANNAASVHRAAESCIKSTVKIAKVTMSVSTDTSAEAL

CB2 = molecular target: T2, CB2 (Homo sapiens, UniProt P34972); test: Displacement of [3H]CP55940 in membranes of CHO-K1 cells over-expressing CB2; format: binding
T2 construct: expressed in transfected cells; host or cells: CHO-K1 (membranes)
T2 sequence (P34972 whole entry): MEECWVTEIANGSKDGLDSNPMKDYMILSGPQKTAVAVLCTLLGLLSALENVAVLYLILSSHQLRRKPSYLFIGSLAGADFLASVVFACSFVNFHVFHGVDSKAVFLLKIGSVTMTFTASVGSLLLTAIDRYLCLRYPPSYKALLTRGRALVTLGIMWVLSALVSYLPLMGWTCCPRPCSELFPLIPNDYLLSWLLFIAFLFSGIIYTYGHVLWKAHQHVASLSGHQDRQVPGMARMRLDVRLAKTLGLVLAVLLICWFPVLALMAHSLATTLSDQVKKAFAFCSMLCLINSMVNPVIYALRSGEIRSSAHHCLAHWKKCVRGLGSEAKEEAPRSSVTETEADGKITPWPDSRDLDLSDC
Description: All compounds were characterized by H^1 NMR and evaluated using a calcium mobilization assay. Each compound was pharmacologically characterized using a functional fluorescent CB1 activated Gαq16-coupled intracellular calcium mobilization assay in CHO-K1 cells as has been previously described and apparent affinity (Ke) values were determined. See Zhang et al., J. Med. Chem. 2010, 53, 7048, which is incorporated herein by reference. Further characterization of select compounds was performed using radioligand displacement of [3H]1 and equilibrium dissociation constant (Ki) values were determined. Selectivity of these compounds at CB1 versus CB2 was also determined by obtaining Ki values at either receptor using displacement of [3H]CP55940 in membranes of CHO-K1 cells over-expressing either receptor. Data reported are average values from 3-6 measurements.
Select compounds were chosen for further study in radioligand displacement assays using radiolabeled rimonobant, SR141716 ([^3H]1). […] Selectivity against the CB2 receptor was determined by comparing the compound displacement of radiolabeled CP55940, which is a cannabinoid known to act as a full agonist at both CB1 and CB2 receptors. In general, tested compounds were selective for CB1 over CB2.

CB1 [2] = molecular target: T1, CB1; test: CB1 activated Gαq16-coupled intracellular calcium mobilization assay in CHO-K1 cells (apparent affinity Ke); format: cell-based; details: calcium mobilization
[3] = Table 4, read-out: Ki (nM) v. [3H] CP55940 at CB2
[4] = Table 4, read-out: Ke (nM) at CB1
[5] = Table 2, apparent affinity, read-out: Ke CB1
[6] = Table 5, read-out: Ke (nM) at CB1
[7] = Table 5, read-out: Ki (nM) v. [3H] CP55940 at CB2

Compound: Cc1c(C(=O)N2CCC(O)(c3ccccc3)CC2)nn(-c2ccc(Cl)cc2Cl)c1-c1ccc(C#N)cc1 [CN, phenyl, OH, 4-[1-(2,4-dichlorophenyl)-3-[(4-hydroxy-4-phenylpiperidin-1-yl)carbonyl]-4-methyl-1H-pyrazol-5-yl]benzonitrile]
Kb (CB1 [2]; [4]): 907 nM

Compound: Cc1c(C(=O)NCCCN(C)CCCNS(C)(=O)=O)nn(-c2ccc(Cl)cc2Cl)c1-c1ccc(Cl)cc1 [5-(4-chlorophenyl)-1-(2,4-dichlorophenyl)-N-{3-[(3-methanesulfonamidopropyl)(methyl)amino]propyl}-4-methyl-1H-pyrazole-3-carboxamide]
Kb (CB1 [2]; [5]): 5340 nM

Compound: Cc1c(C(=O)N[C@H]2CC[C@H](NS(C)(=O)=O)CC2)nn(-c2ccc(Cl)cc2Cl)c1-c1ccc(Cl)cc1 [5-(4-chlorophenyl)-1-(2,4-dichlorophenyl)-4-methyl-N-[(1r,4r)-4-methanesulfonamido-cyclohexyl]-1H-pyrazole-3-carboxamide]
Kb (CB1 [2]; [5]): >10000 nM

Compound: Cc1c(C(=O)NCc2ccc(CNS(N)(=O)=O)cc2)nn(-c2ccc(Cl)cc2Cl)c1-c1ccc(Cl)cc1 [5-(4-chlorophenyl)-1-(2,4-dichlorophenyl)-4-methyl-N-({4-[(sulfamoylamino)methyl]phenyl}methyl)-1H-pyrazole-3-carboxamide]
Kb (CB1 [2]; [5]): 376 nM

Compound: 4-C-5-(4-Chlorophenyl)-1-(2,4-dichlorophenyl)-4-methyl-1H-pyrazole-3-1-N-propylpiperidine-1,4-diamido [NH(n-propyl)]
Kb (CB1 [2]; [6]): 66.5 nM

Compound: Cc1c(C(=O)NCC2CCC(CNS(N)(=O)=O)CC2)nn(-c2ccc(Cl)cc2Cl)c1-c1ccc(Cl)cc1 (mixture of isomers)
Ki (CB2; Table 3, radioligand [3H]CP55940, read-out: Ki(μM) CB2 CP55940): 1790 nM

Compound: Cc1c(C(=O)NCCCCCCCNS(N)(=O)=O)nn(-c2ccc(Cl)cc2Cl)c1-c1ccc(Cl)cc1 [5-(4-chlorophenyl)-1-(2,4-dichlorophenyl)-4-methyl-N-[7-(sulfamoylamino)heptyl]-1H-pyrazole-3-carboxamide]
Kb (CB1 [2]; [5]): 304 nM

Compound: Cc1c(C(=O)NCc2cccc(CNS(C)(=O)=O)c2)nn(-c2ccc(Cl)cc2Cl)c1-c1ccc(Cl)cc1 [5-(4-chlorophenyl)-1-(2,4-dichlorophenyl)-N-{[3-(methanesulfonamidomethyl)phenyl]methyl}-4-methyl-1H-pyrazole-3-carboxamide]
Kb (CB1 [2]; [5]): 2830 nM

Compound: CCCNC(=O)NC1CCN(C(=O)c2nn(-c3ccc(Cl)cc3Cl)c(-c3ccc(Cl)cc3)c2C)CC1 [Cl, H, NHC(O)NHC3H7, 1-(1-{[5-(4-Chlorophenyl)-1-(2,4-dichlorophenyl)-4-methyl-1H-pyrazol-3-yl]carbonyl}piperidin-4-yl)-3-propylurea]
Kb (CB1 [2]; [4]): 546 nM

Compound: Cc1c(C(=O)N2CCC(N)CC2)nn(-c2ccc(Cl)cc2Cl)c1-c1ccc(Cl)cc1 [Cl, H, NH2, 1-{[5-(4-Chlorophenyl)-1-(2,4-dichlorophenyl)-4-methyl-1H-pyrazol-3-yl]carbonyl}piperidin-4-amine]
Kb (CB1 [2]; [4]): 1920 nM

Compound: Cc1c(C(=O)N2CCC(NC(=O)OC(C)(C)C)CC2)nn(-c2ccc(Cl)cc2Cl)c1-c1ccc(Cl)cc1 [Cl, H, NHC(O)O(t-butyl), tert-Butyl N-(1-{[5-(4-chlorophenyl)-1-(2,4-dichlorophenyl)-4-methyl-1H-pyrazol-3-yl]carbonyl}piperidin-4-yl)carbamate]
Kb (CB1 [2]; [4]): 209 nM

Compound: Cc1c(C(=O)N2CCC(NC(=O)NC(C)C)CC2)nn(-c2ccc(Cl)cc2Cl)c1-c1ccc(Cl)cc1 [Cl, H, NHC(O)NHCH(CH3)2, 1-(1-{[5-(4-Chlorophenyl)-1-(2,4-dichlorophenyl)-4-methyl-1H-pyrazol-3-yl]carbonyl}piperidin-4-yl)-3-(propan-2-yl)urea]
Kb (CB1 [2]; [4]): 608 nM

Compound: Cc1c(C(=O)N2CCC(NS(C)(=O)=O)CC2)nn(-c2ccc(Cl)cc2Cl)c1-c1ccc(Cl)cc1 [Cl, H, NHS(O)2CH3, N-(1-{[5-(4-Chlorophenyl)-1-(2,4-dichlorophenyl)-4-methyl-1H-pyrazol-3-yl]carbonyl}piperidin-4-yl)methanesulfonamide]
Kb (CB1 [2]; [4]): 146 nM

Compound: Cc1c(C(=O)NCc2ccc(CNS(C)(=O)=O)cc2)nn(-c2ccc(Cl)cc2Cl)c1-c1ccc(Cl)cc1 [5-(4-chlorophenyl)-1-(2,4-dichlorophenyl)-N-{[4-(methanesulfonamidomethyl)phenyl]methyl}-4-methyl-1H-pyrazole-3-carboxamide]
Kb (CB1 [2]; [5]): 2930 nM

Compound: CCCCOC(=O)N1CCC(NC(=O)c2nn(-c3ccc(Cl)cc3Cl)c(-c3ccc(Cl)cc3)c2C)CC1 [OC4H9, Butyl 4-[5-(4-chlorophenyl)-1-(2,4-dichlorophenyl)-4-methyl-1H-pyrazole-3-amido]piperidine-1-carboxylate]
Kb (CB1 [2]; [6]): 88 nM

Compound: CCCCNC(=O)NC1CCN(C(=O)c2nn(-c3ccc(Cl)cc3Cl)c(-c3ccc(Cl)cc3)c2C)CC1 [Cl, H, NHC(O)NHC4H9, 3-Butyl-1-(1-{[5-(4-chlorophenyl)-1-(2,4-dichlorophenyl)-4-methyl-1H-pyrazol-3-yl]carbonyl}piperidin-4-yl)urea]
Kb (CB1 [2]; [4]): 395 nM

Compound: Cc1c(C(=O)NCc2cccc(CNS(N)(=O)=O)c2)nn(-c2ccc(Cl)cc2Cl)c1-c1ccc(Cl)cc1 [5-(4-chlorophenyl)-1-(2,4-dichlorophenyl)-4-methyl-N-({3-[(sulfamoylamino)methyl]phenyl}methyl)-1H-pyrazole-3-carboxamide]
Kb (CB1 [2]; [5]): 4200 nM

Compound: Cc1c(C(=O)N[C@H]2CC[C@H](NS(N)(=O)=O)CC2)nn(-c2ccc(Cl)cc2Cl)c1-c1ccc(Cl)cc1 [5-(4-chlorophenyl)-1-(2,4-dichlorophenyl)-4-methyl-N-[(1r,4r)-4-(sulfamoylamino)cyclohexyl]-1H-pyrazole-3-carboxamide]
Kb (CB1 [2]; [5]): 9430 nM

Further lines, results first:

Binding Selectivity using CP55940 Displacement (CB1 [1]; Table 4): 25.3 | Ki (CB1 [1]; Table 4): 792 nM | Ki (CB2; [3]): ≥ 20000 nM
Compound: Cc1c(C(=O)N2CCC(NC(=O)NC3CCCCC3)(c3ccccc3)CC2)nn(-c2ccc(Cl)cc2Cl)c1-c1ccc(Cl)cc1 [Cl, phenyl, NHC(O)NH(cyclohexyl), 3-(1-{[5-(4-chlorophenyl)-1-(2,4-dichlorophenyl)-4-methyl-1H-pyrazol-3-yl]carbonyl}-4-phenylpiperidin-4-yl)-1-cyclohexylurea]

Binding Selectivity using CP55940 Displacement (CB1 [1]; Table 4): 38.7 | Ki (CB1 [1]; Table 4): 7.57 nM | Ki (CB2; [3]): 293 nM
Compound: CCCNC(=O)NC1(c2ccccc2)CCN(C(=O)c2nn(-c3ccc(Cl)cc3Cl)c(-c3ccc(Cl)cc3)c2C)CC1 [Cl, phenyl, NHC(O)NHC3H7, 1-(1-{[5-(4-chlorophenyl)-1-(2,4-dichlorophenyl)-4-methyl-1H-pyrazol-3-yl]carbonyl}-4-phenylpiperidin-4-yl)-3-propylurea]

Binding Selectivity using CP55940 Displacement (CB1 [1]; Table 4): 12.1 | Ki (CB1 [1]; Table 4): 15 nM | Ki (CB2; [3]): 182 nM
Compound: CCNC(=O)NC1(c2ccccc2)CCN(C(=O)c2nn(-c3ccc(Cl)cc3Cl)c(-c3ccc(Cl)cc3)c2C)CC1 [Cl, phenyl, NHC(O)NHCH2CH3, 1-(1-{[5-(4-chlorophenyl)-1-(2,4-dichlorophenyl)-4-methyl-1H-pyrazol-3-yl]carbonyl}-4-phenylpiperidin-4-yl)-3-ethylurea]

Binding Selectivity using CP55940 Displacement (CB1 [1]; Table 4): 62.2 | Ki (CB1 [1]; Table 4): 38.8 nM | Ki (CB2; [3]): 2410 nM
Compound: CCCCCCNC(=O)NC1(c2ccccc2)CCN(C(=O)c2nn(-c3ccc(Cl)cc3Cl)c(-c3ccc(Cl)cc3)c2C)CC1 [Cl, phenyl, NHC(O)NH(C6H13), 1-(1-{[5-(4-chlorophenyl)-1-(2,4-dichlorophenyl)-4-methyl-1H-pyrazol-3-yl]carbonyl}-4-phenylpiperidin-4-yl)-3-hexylurea]

Binding Selectivity using CP55940 Displacement (CB1 [1]; Table 5): 175.7 | Ki (CB1 [1]; Table 5): 97.9 nM | Ki (CB2; [7]): 17200 nM
Compound: Cc1c(C(=O)NC2CCN(C(=O)NC(C)C)CC2)nn(-c2ccc(Cl)cc2Cl)c1-c1ccc(Cl)cc1 [NH(isopropyl), 4-C-5-(4-Chlorophenyl)-1-(2,4-dichlorophenyl)-4-methyl-1H-pyrazole-3-1-N-(propan-2-yl)piperidine-1,4-diamido]

Binding Selectivity using CP55940 Displacement (CB1 [1]; Table 5): 79.0 | Ki (CB1 [1]; Table 5): 167 nM | Ki (CB2; [7]): 13200 nM
Compound: CCNC(=O)N1CCC(NC(=O)c2nn(-c3ccc(Cl)cc3Cl)c(-c3ccc(Cl)cc3)c2C)CC1 [NHC2H5, 4-C-5-(4-chlorophenyl)-1-(2,4-dichlorophenyl)-4-methyl-1H-pyrazole-3-1-N-ethylpiperidine-1,4-diamido]

Kb (CB1 [2]; [6]): 4100 nM
Compound: Cc1c(C(=O)NC2CCN(C(N)=O)CC2)nn(-c2ccc(Cl)cc2Cl)c1-c1ccc(Cl)cc1 [NH2, 4-C-5-(4-chlorophenyl)-1-(2,4-dichlorophenyl)-4-methyl-1H-pyrazole-3-piperidine-1,4-diamido]

Ki (CB1 [1]; Table 5): 149 nM | Ki (CB2; [7]): > 20000 nM
Compound: CCCCNC(=O)N1CCC(NC(=O)c2nn(-c3ccc(Cl)cc3Cl)c(-c3ccc(Cl)cc3)c2C)CC1 [NH(n-butyl), 1-N-Butyl-4-C-5-(4-chlorophenyl)-1-(2,4-dichlorophenyl)-4-methyl-1H-pyrazole-3-piperidine-1,4-diamido]
